Laboratory results published in patent US9850247B2 (Almac Discovery Limited, priority 2013, dated 2017).

Tests used:
[1] = target: T1, Wee-1 kinase (Homo sapiens, UniProt P30291); assay: Measurement of Wee-1 kinase activity (ADP-Glo luminescent kit); format: biochemical
T1 construct: purchased Invitrogen PV3817
In short: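 ADP-Glo luminescence reads ADP made over 1 h at RT, after an aliquot of 30 μM ATP and 2.0 μg/mL poly(Lys,Tyr 4:1) substrate. Before that, the kinase sat 30 min with inhibitor in Tris-HCl/MgCl2 buffer with BSA and DTT. IC50 came from regression of percent inhibition.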

[2] = CLint estimates using human liver microsomes (Method 4); format: in vitro ADME; conditions: pH 7.4, 1 μM compound, read-out: Mics - CLint (HLM CLint)
Protocol: Method 4: Determination of CLint Estimates Using Human liver microsomes Test compounds (final concentration=1 μM; final DMSO concentration=0.1%) were incubated in 0.1 M phosphate buffer pH 7.4 with human liver microsomes (0.5 mg of protein/mL) at 37° C. Reactions were started by addition of NADPH in 0.1 M phosphate buffer pH 7.4 (final concentration 1 mM). 40 μL aliquots were removed at 2, 5, 10, 15, 20, 30, 40 and 50 min. Reactions were quenched in 80 μL of ice-cold methanol. Samples were subsequently frozen overnight then centrifuged at 3500 rpm for 20 min at 4° C. The supernatants were removed and transferred into analytical plates and analysed by LC/MS/MS. LC/MS/MS Method: All samples were analysed on a Waters Acquity I-Class coupled to a Waters Xevo TQD mass spectrometer. A Waters BEH C18 2.1×50 mm 1.7 μm column was used and mobile phases were water and methanol containing 0.1% formic acid as modifier. Analysis was by multiple reaction monitoring and conditions were optimised for each test compound. Data Analyses: From a plot of 1n peak area against time, the gradient of the line is determined. Subsequently, half-life and intrinsic clearance are calculated using the following equations. [formula] [formula] [formula] where V=Incubation volume (μL)/number of cells Method 5: Determination of Kinetic Solubility (in PBS Buffer)

T1 sequence (P30291 whole entry): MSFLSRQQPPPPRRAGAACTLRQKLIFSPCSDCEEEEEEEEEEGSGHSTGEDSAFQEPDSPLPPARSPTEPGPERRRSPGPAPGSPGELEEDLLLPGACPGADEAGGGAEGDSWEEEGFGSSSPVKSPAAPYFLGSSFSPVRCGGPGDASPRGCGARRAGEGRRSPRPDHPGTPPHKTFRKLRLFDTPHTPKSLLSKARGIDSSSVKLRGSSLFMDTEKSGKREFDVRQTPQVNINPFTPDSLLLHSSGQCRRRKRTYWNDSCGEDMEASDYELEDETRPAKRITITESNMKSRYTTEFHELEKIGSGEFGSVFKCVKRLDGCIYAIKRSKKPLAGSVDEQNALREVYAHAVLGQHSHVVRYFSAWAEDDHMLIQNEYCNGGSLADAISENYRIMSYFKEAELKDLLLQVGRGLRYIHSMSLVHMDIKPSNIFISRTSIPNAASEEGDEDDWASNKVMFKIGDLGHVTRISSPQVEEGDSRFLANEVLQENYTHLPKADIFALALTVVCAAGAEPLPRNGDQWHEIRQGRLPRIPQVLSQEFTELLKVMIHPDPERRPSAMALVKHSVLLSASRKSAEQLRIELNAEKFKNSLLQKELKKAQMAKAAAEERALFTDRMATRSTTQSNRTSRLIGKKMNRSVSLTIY

IC50 [1] [nM] | microsomal CLint at 1 μM [2] [µL/min/mg] | SMILES
10 to 100 | ≤ 15 | CNCc1cc(Nc2ncc3c(n2)N(C)CN(c2c(Cl)cccc2Cl)C3=O)ccc1-c1ccncc1 [Example 155, 3-(2,6-dichlorophenyl)-1-methyl-7-((3-((methylamino)methyl)-4-(pyridin-4-yl)phenyl)amino)-2,3-dihydropyrimido[4,5-d]pyrimidin-4(1H)-one]
10 to 100 | 15 to 50 | CCN1CCN(c2ccc(Nc3ncc4c(n3)N(C)CN(c3ccccc3Cl)C4=O)cc2CO)CC1 [Example 113, 3-(2-chlorophenyl)-7-((4-(4-ethylpiperazin-1-yl)-3-(hydroxymethyl)phenyl)amino)-1-methyl-2,3-dihydropyrimido[4,5-d]pyrimidin-4(1H)-one]
≥ 100 | ≤ 15 | CNCc1cc(Nc2ncc3c(n2)N(C)CN(c2c(Cl)cccc2Cl)C3=O)ccc1F [Example 152, 3-(2,6-dichlorophenyl)-7-((4-fluoro-3-((methylamino)methyl)phenyl)amino)-1-methyl-2,3-dihydropyrimido[4,5-d]pyrimidin-4(1H)-one]
10 to 100 | 15 to 50 | CN1CN(c2c(Cl)cccc2Cl)C(=O)c2cnc(Nc3ccc(N4CCN(CCO)CC4)cc3)nc21 [Example 116, 3-(2,6-dichlorophenyl)-7-((4-(4-(2-hydroxyethyl)piperazin-1-yl)phenyl)amino)-1-methyl-2,3-dihydropyrimido[4,5-d]pyrimidin-4(1H)-one]
10 to 100 | ≤ 15 | CNCc1cc(Nc2ncc3c(n2)N(C)CN(c2c(Cl)cccc2Cl)C3=O)ccc1OC [Example 159, 3-(2,6-dichlorophenyl)-7-((4-methoxy-3-((methylamino)methyl)phenyl)amino)-1-methyl-2,3-dihydropyrimido[4,5-d]pyrimidin-4(1H)-one]
10 to 100 | ≤ 15 | CN1CN(c2ccccc2Cl)C(=O)c2cnc(Nc3ccc(N4CCNC(C)(C)C4)cc3)nc21 [Example 106, 3-(2-chlorophenyl)-7-((4-(3,3-dimethylpiperazin-1-yl)phenyl)amino)-1-methyl-2,3-dihydropyrimido[4,5-d]pyrimidin-4(1H)-one]
10 to 100 | 15 to 50 | Cc1cc(Nc2ncc3c(n2)N(C)CN(c2c(Cl)cccc2Cl)C3=O)ccc1N1C[C@H]2C[C@@H]1CN2C [Example 121, 3-(2,6-dichlorophenyl)-1-methyl-7-((3-methyl-4-((1R,4R)-5-methyl-2,5-diazabicyclo[2.2.1]heptan-2-yl)phenyl)amino)-2,3-dihydropyrimido[4,5-d]pyrimidin-4(1H)-one]
≥ 100 | ≥ 50 | CN1CN(c2c(Cl)cccc2Cl)C(=O)c2cnc(Nc3ccc(N4CCCCC4)c(CO)c3)nc21 [Example 131, 3-(2,6-dichlorophenyl)-7-((3-(hydroxymethyl)-4-(piperidin-1-yl)phenyl)amino)-1-methyl-2,3-dihydropyrimido[4,5-d]pyrimidin-4(1H)-one]
10 to 100 | ≤ 15 | Cc1cc(Nc2ncc3c(n2)N(C)CN(c2c(C)cccc2Cl)C3=O)ccc1N1C[C@@H]2C[C@H]1CN2 [Example 112, 7-((4-((1S,4S)-2,5-diazabicyclo[2.2.1]heptan-2-yl)-3-methylphenyl)amino)-3-(2-chloro-6-methylphenyl)-1-methyl-2,3-dihydropyrimido[4,5-d]pyrimidin-4(1H)-one]
10 to 100 | 15 to 50 | CCN1CCN(c2ccc(Nc3ncc4c(n3)N(C)CN(c3c(Cl)cccc3Cl)C4=O)cc2)CC1 [Example 122, 3-(2,6-dichlorophenyl)-7-((4-(4-ethylpiperazin-1-yl)phenyl)amino)-1-methyl-2,3-dihydropyrimido[4,5-d]pyrimidin-4(1H)-one]
≤ 10 | ≤ 15 | COC[C@H]1CNCCN1c1ccc(Nc2ncc3c(n2)N(C)CN(c2c(Cl)cccc2Cl)C3=O)cc1 [Example 129, (R)-3-(2,6-dichlorophenyl)-7-((4-(2-(methoxymethyl)piperazin-1-yl)phenyl)amino)-1-methyl-2,3-dihydropyrimido[4,5-d]pyrimidin-4(1H)-one]

More lines, now with the values behind:

SMILES | IC50 [1] [nM] | microsomal CLint at 1 μM [2] [µL/min/mg]
CN1CN(c2c(Cl)cccc2Cl)C(=O)c2cnc(Nc3ccc(N4C[C@@H]5C[C@H]4CN5C)cc3)nc21 [Example 44, 3-(2,6-dichlorophenyl)-1-methyl-7-((4-((1S,4S)-5-methyl-2,5-diazabicyclo[2.2.1]heptan-2-yl)phenyl)amino)-2,3-dihydropyrimido[4,5-d]pyrimidin-4(1H)-one] | 10 to 100 | ≤ 15
C[C@@H]1CN(c2ccc(Nc3ncc4c(n3)N(c3ccn(C)n3)CN(c3c(Cl)cccc3Cl)C4=O)cc2)CCN1 [Example 58, (R)-3-(2,6-dichlorophenyl)-1-(1-methyl-1H-pyrazol-3-yl)-7-((4-(3-methylpiperazin-1-yl)phenyl)amino)-2,3-dihydropyrimido[4,5-d]pyrimidin-4(1H)-one] | ≤ 10 | ≤ 15
CN1CCC(Oc2ccc(Nc3ncc4c(n3)N(C)CN(c3c(Cl)cccc3Cl)C4=O)cc2)CC1 [Example 90, 3-(2,6-dichlorophenyl)-1-methyl-7-((4-((1-methylpiperidin-4-yl)oxy)phenyl)amino)-2,3-dihydropyrimido[4,5-d]pyrimidin-4(1H)-one] | 10 to 100 | 15 to 50
COC[C@@H]1CN(c2ccc(Nc3ncc4c(n3)N(C)CN(c3c(Cl)cccc3Cl)C4=O)cc2)CCN1C [Example 66, (S)-3-(2,6-dichlorophenyl)-7-((4-(3-(methoxymethyl)-4-methylpiperazin-1-yl)phenyl)amino)-1-methyl-2,3-dihydropyrimido[4,5-d]pyrimidin-4(1H)-one] | 10 to 100 | 15 to 50
CN1CN(c2c(Cl)cccc2Cl)C(=O)c2cnc(Nc3ccc(N4CCOCC4)cc3)nc21 [Example 41, 3-(2,6-dichlorophenyl)-1-methyl-7-((4-morpholinophenyl)amino)-2,3-dihydropyrimido[4,5-d]pyrimidin-4(1H)-one] | 10 to 100 | 15 to 50
CN1CN(c2c(Cl)cccc2Cl)C(=O)c2cnc(Nc3ccc(N4CCN(C)[C@H](CO)C4)cc3)nc21 [Example 49, (S)-3-(2,6-dichlorophenyl)-7-((4-(3-(hydroxymethyl)-4-methylpiperazin-1-yl)phenyl)amino)-1-methyl-2,3-dihydropyrimido[4,5-d]pyrimidin-4(1H)-one] | 10 to 100 | 15 to 50
CN1CN(c2c(Cl)cccc2Cl)C(=O)c2cnc(Nc3ccc(N4C[C@@H]5C[C@H]4CN5)cc3)nc21 [Example 39, 7-((4-((1S,4S)-2,5-diazabicyclo[2.2.1]heptan-2-yl)phenyl)amino)-3-(2,6-dichlorophenyl)-1-methyl-2,3-dihydropyrimido[4,5-d]pyrimidin-4(1H)-one] | 10 to 100 | ≤ 15
C[C@@H]1CN(c2ccc(Nc3ncc4c(n3)N(C)CN(c3c(Cl)cccc3Cl)C4=O)cc2)[C@H](C)CN1 [Example 79, 3-(2,6-dichlorophenyl)-7-((4-((2R,5R)-2,5-dimethylpiperazin-1-yl)phenyl)amino)-1-methyl-2,3-dihydropyrimido[4,5-d]pyrimidin-4(1H)-one] | 10 to 100 | 15 to 50
CN1CN(c2c(Cl)cccc2Cl)C(=O)c2cnc(Nc3ccc(N4CC5COCC(C4)N5)cc3)nc21 [Example 64, 7-((4-(3-oxa-7,9-diazabicyclo[3.3.1]nonan-7-yl)phenyl)amino)-3-(2,6-dichlorophenyl)-1-methyl-2,3-dihydropyrimido[4,5-d]pyrimidin-4(1H)-one] | 10 to 100 | ≤ 15
